For three compounds, IC50 results are on record in patent US5756776A, “Semi-synthetic taxanes with anti-tumoural activity” (Indena S.p.A., priority 1994, dated 1998).

What all share (assay type): cell-based
Experiment [1] concerns L1210 (murine leukemia). Briefly: cytotoxic effect on L1210 tumour cell line (comparison with taxol). To be noted: exposure time 48 h, RPMI 1640 + 20 mM HEPES + 2 mM L-glutamine. As to the method: (§1) The products of the present invention were screened for their cytotoxic effect on different tumour cell lines, comparing their action with that of taxol.
(§2) Standard conditions: substrate RPMI 1640 + 20 mM HEPES + 2 mM Lglutamine.

The test system of experiment [2] is A121 (Human ovarian). Briefly: cytotoxic effect on A121 tumour cell line (comparison with taxol). The settings on record: exposure time 72 h, RPMI 1640 + 20 mM HEPES + 2 mM L-glutamine. On the procedure: as §1, §2
Experiment [3] concerns A549 (Human NSCLC). Briefly: cytotoxic effect on A549 tumour cell line (comparison with taxol). The settings on record: exposure time 72 h, RPMI 1640 + 20 mM HEPES + 2 mM L-glutamine. On the procedure: as §1, §2
For experiment [4], the system named is HT-29 (Human colon). Briefly: cytotoxic effect on HT-29 tumour cell line (comparison with taxol). The settings on record: exposure time 72 h, RPMI 1640 + 20 mM HEPES + 2 mM L-glutamine. On the procedure: as §1, §2
Experiment [5] has as its system MCF7 (Human breast). Briefly: cytotoxic effect on MCF7 tumour cell line (comparison with taxol). To be noted: exposure time 72 h, RPMI 1640 + 20 mM HEPES + 2 mM L-glutamine. As to the method: as §1, §2
For experiment [6], the system named is MCF7-ADR (resistant). Briefly: cytotoxic effect on MCF7-ADR resistant tumour cell line (comparison with taxol). The settings on record: exposure time 72 h, RPMI 1640 + 20 mM HEPES + 2 mM L-glutamine. As to the method:
as §1, §2

In general, IC50 refers to the concentration that inhibits the measured activity by half.

Turning to `CC(=O)O[C@@]1([C@@H]2C(C)=C(O)C(=O)C3=C(C)[C@@H](OC(=O)[C@H](O)[C@@H](NC(=O)OC(C)(C)C)c4ccccc4)C[C@@](O)([C@H]2OC(=O)c2ccccc2)C3(C)C)CO[C@@H]1CCO` [5a, 13-[(2R, 3S)-3-phenyl-2-hydroxy-3-tert-butoxy-carbonylamino-propanoyl]-C-seco-10-deacetylbaccatine III], the IC50 in experiment [1] (Mus musculus) came out at 35 ± 1.2 nM; in experiment [2], 1.9 nM; in experiment [3], 3.3 nM; in experiment [4] it was 3.2 nM; in experiment [5], 1.5 nM; in experiment [6] (Homo sapiens, NCI/ADR-RES), 31.3 nM.

As for `CC(=O)O[C@@]12CO[C@@H]1C[C@H](O)[C@@]1(C)C(=O)[C@@H](O)C3=C(C)[C@@H](OC(=O)[C@H](O)[C@@H](NC(=O)OC(C)(C)C)c4ccccc4)C[C@@](O)([C@@H](OC(=O)c4ccccc4)[C@H]21)C3(C)C` [1a, 13-[(2R, 3S)-3-phenyl-2-hydroxy-3-tert-butoxycarbonylamino-propanoyl]-10-epi-10-deacetylbaccatine III], the IC50 in experiment [1] (Mus musculus) came to 46 ± 2.1 nM; in experiment [2] it was 2.8 ± 0.3 nM; in experiment [3], 6.9 ± 0.3 nM; in experiment [4], 3.4 ± 0.1 nM; in experiment [5], 2.2 ± 0.2 nM; in experiment [6] (Homo sapiens, NCI/ADR-RES) it was 130 ± 2.2 nM.

For the compound “13-[(2R, 3S)-3-phenyl-2-hydroxy-3-tert-butoxycarbonylamino-propanoyl]-10-deacetyl-11,12-dihydrobaccatine III [1b]”, the IC50 in experiment [1] is 32 ± 0.1 nM; in experiment [2] it was 1.6 ± 0.2 nM; in experiment [3], 2.1 ± 0.3 nM; in experiment [4], 3.6 ± 0.4 nM; in experiment [5], 0.8 ± 0.2 nM; in experiment [6], 128 ± 6.2 nM.
